# Structures can show the parent of a compound that is named as a salt.
# How the values were obtained:
# [1] = background statement on known alkaloids; result in words; cited from earlier work
# [2] = test system: Gardner lymphosarcoma (GLS); experiment: anti-tumor activity against transplanted Gardner lymphosarcoma (GLS) in mice; format: in vivo; conditions: intraperitoneal
# Procedure: (§1) The compounds of this invention, as represented by Formula II above, are anti-tumor agents. […] For this determination, a protocol was used which involved the administration of the drug by the intraperitoneal route at a given dose level for 7-10 days after innoculation with the tumor or alternatively, on the first, fifth, and ninth days after innoculation.
# (§2) The following table--Table 1--give the results of several experiments in which transplanted tumors in mice were treated successfully with a compound of this invention.
# (§3) In the table, column 1 gives the name of the compound; column 2, the transplanted tumor; column 3, the dose level or dose level range and the number of days the dosage was administered; and column 4, the percent inhibition of tumor growth or percent prolongation of survival time, e.g., B16. (GLS is an abbreviation for Gardner lymphosarcoma; CA755 is an adenocarcinoma; and B16 is a melanoma.).
# B16 melanoma = experiment: anti-tumor activity against transplanted B16 melanoma in mice (prolongation of survival time); format: in vivo; conditions: B16, intraperitoneal; for toxic: 9.0 mg./kg. × 3 days
# Procedure: as §1, §2, §3
# [3] = test system: Chinese hamster ovary cells; experiment: mitotic inhibition in Chinese hamster ovary cells; format: cell-based
# Description: The compounds of this invention are mitotic inhibitors in Chinese hamster ovary cells.
# CA755 adenocarcinoma = experiment: anti-tumor activity against transplanted adenocarcinoma 755 (CA755) in mice; format: in vivo; conditions: 755, intraperitoneal, 3.0 mg./kg. × 10 days
# Procedure: as §1, §2, §3
Compound,anti-cancer activity [1],"Percent Inhibition of tumor growth ([2]; 1.5 mg./kg. × 10 days, day 7) [%]","Percent Inhibition of tumor growth ([2]; 1.5 mg./kg. × 10 days, day 11) [%]","Percent Inhibition of tumor growth ([2]; 3.0 mg./kg. × 10 days, day 7) [%]","Percent Inhibition of tumor growth ([2]; 3.0 mg./kg. × 10 days, day 11) [%]",toxic ([2]; 6.0 mg./kg. × 10 days),"Percent Inhibition of tumor growth ([2]; 6.0 mg./kg. × 10 days, day 7) [%]",Percent Prolongation of Survival Time (B16 melanoma; 3.0 mg./kg. × 3 days) [%],Percent Prolongation of Survival Time (B16 melanoma; 6.0 mg./kg. × 3 days) [%],toxic (B16 melanoma),"minimal effective concentration ([3]; Cricetulus griseus, read-out: mitotic inhibition, activity as low as) [µg/mL]",mitotic inhibition compared with vinblastine sulfate or 4-desacetylvinblastine ([3]; result in words),Percent Inhibition of tumor growth (CA755 adenocarcinoma) [%]
CCC(=O)C[C@@H]1CN(C=O)CCc2c([nH]c3ccccc23)[C@@](C(=O)OC)(c2cc3c(cc2OC)N(C)[C@H]2[C@](O)(C(=O)OC)[C@H](OC(C)=O)[C@]4(CC)C=CCN5CC[C@]32[C@@H]54)C1 [vinamidine],chemotherapeutically-inactive,,,,,,,,,,,,
CC[C@]1(O)C[C@@H]2CN(CCc3c([nH]c4ccccc34)[C@@](C(=O)OC)(c3cc4c(cc3OC)N(C=O)[C@H]3[C@@](O)(C(=O)OC)[C@@H](O)[C@]5(CC)C=CCN6CC[C@]43[C@@H]65)C2)C1 [4-Desacetoxy-4α-hydroxy-vincristine sulfate],,36,29,100,100,toxic,100,,,,,,
leurosine N-oxide [pleurosine],loss of anti-cancer activity,,,,,,,,,,,,
CC[C@]1(O)C[C@@H]2CN(CCc3c([nH]c4ccccc34)[C@@](C(=O)OC)(c3cc4c(cc3OC)N(C)[C@H]3[C@@](O)(C(=O)NN)[C@@H](O)[C@]5(CC)C=CCN6CC[C@]43[C@@H]65)C2)C1 [4-Desacetoxy-4α-hydroxyvinblastine C-3 carboxhydrazide],,97,98,100,100,toxic,,67,121,toxic,,,
"CC[C@]1(O)C[C@@H]2CN(CCc3c([nH]c4ccccc34)[C@@](C(=O)OC)(c3cc4c(cc3OC)N(C)[C@H]3[C@@](O)(C(=O)OC)[C@@H](O)[C@]5(CC)C=CCN6CC[C@]43[C@@H]65)C2)C1 [4-Desacetoxy-4α-hydroxy-vinblastine, 4-Desacetoxy-4α-hydroxyvinblastine]",,35,25,91,78,toxic,100,65,90,toxic,0.01,roughly corresponding to that seen with either vinblastine sulfate or with 4-desacetylvinblastine,38

# Source: US4195022A, “4-Desacetoxy-4α-hydroxyvinblastine and related compounds” (Eli Lilly and Company, priority 1978, dated 1980)
